In ChEMBL document CHEMBL4476867, “Hydroxy formamide derivatives and their use” (2016):

Key:
Tolloid-like protein 2 = molecular target: T1, Tolloid-like protein 2 (Homo sapiens, UniProt Q9Y6L7); assay: Inhibition of C-terminal Avi-6x-His epitope tagged and N-terminal human RAGE signal sequence tagged recombinant human TLL2 (26 to 1015 amino acids) expressed in CHOE1A cells incubated for 60 mins with promyostatin peptide substrate by FRET based assay; type: cell-based
T1 sequence (Q9Y6L7 whole entry): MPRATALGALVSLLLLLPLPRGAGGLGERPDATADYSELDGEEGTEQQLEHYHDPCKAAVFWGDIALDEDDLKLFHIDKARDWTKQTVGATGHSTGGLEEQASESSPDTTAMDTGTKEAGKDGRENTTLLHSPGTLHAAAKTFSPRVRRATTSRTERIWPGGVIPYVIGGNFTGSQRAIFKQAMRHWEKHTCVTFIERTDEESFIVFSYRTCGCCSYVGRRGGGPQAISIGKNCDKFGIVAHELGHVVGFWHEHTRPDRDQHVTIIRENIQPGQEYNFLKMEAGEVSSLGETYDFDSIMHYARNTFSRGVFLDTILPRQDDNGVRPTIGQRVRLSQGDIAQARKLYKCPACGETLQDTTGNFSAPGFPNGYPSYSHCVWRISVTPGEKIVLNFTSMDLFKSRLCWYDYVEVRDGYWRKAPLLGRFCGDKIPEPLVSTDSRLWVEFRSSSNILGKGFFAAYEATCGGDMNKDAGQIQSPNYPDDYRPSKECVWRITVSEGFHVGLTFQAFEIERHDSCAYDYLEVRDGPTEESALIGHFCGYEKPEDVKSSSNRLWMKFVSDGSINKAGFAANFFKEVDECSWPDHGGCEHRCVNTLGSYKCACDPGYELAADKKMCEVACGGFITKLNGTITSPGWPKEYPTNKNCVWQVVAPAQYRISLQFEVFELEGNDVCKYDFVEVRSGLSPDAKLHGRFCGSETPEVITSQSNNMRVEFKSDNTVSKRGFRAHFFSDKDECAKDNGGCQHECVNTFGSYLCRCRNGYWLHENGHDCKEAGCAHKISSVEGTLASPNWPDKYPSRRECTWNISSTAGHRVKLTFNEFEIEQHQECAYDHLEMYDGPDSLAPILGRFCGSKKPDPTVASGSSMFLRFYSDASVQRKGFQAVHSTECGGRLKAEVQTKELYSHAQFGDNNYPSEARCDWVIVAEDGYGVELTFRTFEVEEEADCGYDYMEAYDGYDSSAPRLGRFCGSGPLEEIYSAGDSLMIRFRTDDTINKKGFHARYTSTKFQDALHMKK

[1] = molecular target: T2, Bone morphogenetic protein 1 (Homo sapiens, UniProt P13497); assay: Inhibition of C-terminal FLAG-6x-His epitope tagged and N-terminal human RAGE signal sequence tagged human BMP1 (23 to 721 amino acids) expressed in CHO-E1 cells pre-incubated for 10 mins before promyostatin peptide substrate addition and measured after 60 mins using 0.5 nM BMP1 by FRET based assay; type: cell-based
T2 sequence (P13497 whole entry): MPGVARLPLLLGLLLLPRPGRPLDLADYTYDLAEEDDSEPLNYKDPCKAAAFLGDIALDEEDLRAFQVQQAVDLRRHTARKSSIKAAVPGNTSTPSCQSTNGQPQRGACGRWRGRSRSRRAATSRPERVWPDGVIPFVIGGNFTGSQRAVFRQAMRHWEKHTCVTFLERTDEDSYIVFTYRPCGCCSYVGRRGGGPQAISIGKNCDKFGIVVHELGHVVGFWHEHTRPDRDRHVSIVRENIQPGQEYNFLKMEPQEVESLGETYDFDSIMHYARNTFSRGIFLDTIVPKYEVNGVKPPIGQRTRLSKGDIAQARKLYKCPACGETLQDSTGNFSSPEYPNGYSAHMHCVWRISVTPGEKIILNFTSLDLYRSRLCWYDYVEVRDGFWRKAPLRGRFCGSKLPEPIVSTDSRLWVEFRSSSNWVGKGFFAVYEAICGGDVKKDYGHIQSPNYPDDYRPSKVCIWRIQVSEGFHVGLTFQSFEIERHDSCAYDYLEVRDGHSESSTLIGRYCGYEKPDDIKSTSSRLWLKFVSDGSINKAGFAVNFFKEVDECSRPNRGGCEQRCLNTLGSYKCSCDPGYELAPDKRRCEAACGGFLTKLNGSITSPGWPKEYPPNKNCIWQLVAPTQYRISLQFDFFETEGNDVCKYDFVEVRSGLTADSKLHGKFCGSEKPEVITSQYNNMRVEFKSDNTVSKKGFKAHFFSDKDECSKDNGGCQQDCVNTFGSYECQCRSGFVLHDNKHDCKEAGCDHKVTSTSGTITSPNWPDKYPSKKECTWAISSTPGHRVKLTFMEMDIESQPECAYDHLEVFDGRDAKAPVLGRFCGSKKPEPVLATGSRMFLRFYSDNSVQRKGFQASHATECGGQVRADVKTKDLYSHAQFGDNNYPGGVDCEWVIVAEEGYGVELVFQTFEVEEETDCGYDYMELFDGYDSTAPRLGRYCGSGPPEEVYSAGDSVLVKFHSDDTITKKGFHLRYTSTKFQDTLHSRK

Tolloid-like protein 1 = Tolloid-like protein 1 (Homo sapiens, UniProt O43897, I156V/N221S/V284A); assay: Inhibition of recombinant human TLL1 I156V/N221S/V284A mutant expressed in CHOE1A cells pre-incubated for 10 mins before promyostatin peptide substrate addition and measured after 60 mins by FRET based assay; type: cell-based
[2] = molecular target: T2, Bone morphogenetic protein 1; assay: Inhibition of C-terminal FLAG-6x-His epitope tagged and N-terminal human RAGE signal sequence tagged human BMP1 (23 to 721 amino acids) expressed in CHO-E1 cells pre-incubated for 10 mins before promyostatin peptide substrate addition and measured after 30 mins using 50 nM BMP1 by FRET based assay; type: cell-based
[3] = Reduction in PICP levels in human cardiac fibroblasts incubated for 24 to 48 hrs by ELISA; type: functional
How it was run: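 Human cardiac fibroblasts at passage 6 or below were plated in 96-well plates at 10,000 to 15,000 cells per well. On the following day, cells were treated for 24 to 48 hr at 37° C in ficoll crowding EMEM containing 100 μM ascorbic acid, with DMSO kept under 0.3%. A Quidel ELISA measured procollagen I C-terminal propeptide released into the medium, and IC50 values were derived in GraphPad Prism by fitting levels, expressed relative to untreated controls, to a log(inhibitor)-response equation.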

Sequence of Tolloid-like protein 1 (O43897 148-1013 I156V/N221S/V284A limits assumed): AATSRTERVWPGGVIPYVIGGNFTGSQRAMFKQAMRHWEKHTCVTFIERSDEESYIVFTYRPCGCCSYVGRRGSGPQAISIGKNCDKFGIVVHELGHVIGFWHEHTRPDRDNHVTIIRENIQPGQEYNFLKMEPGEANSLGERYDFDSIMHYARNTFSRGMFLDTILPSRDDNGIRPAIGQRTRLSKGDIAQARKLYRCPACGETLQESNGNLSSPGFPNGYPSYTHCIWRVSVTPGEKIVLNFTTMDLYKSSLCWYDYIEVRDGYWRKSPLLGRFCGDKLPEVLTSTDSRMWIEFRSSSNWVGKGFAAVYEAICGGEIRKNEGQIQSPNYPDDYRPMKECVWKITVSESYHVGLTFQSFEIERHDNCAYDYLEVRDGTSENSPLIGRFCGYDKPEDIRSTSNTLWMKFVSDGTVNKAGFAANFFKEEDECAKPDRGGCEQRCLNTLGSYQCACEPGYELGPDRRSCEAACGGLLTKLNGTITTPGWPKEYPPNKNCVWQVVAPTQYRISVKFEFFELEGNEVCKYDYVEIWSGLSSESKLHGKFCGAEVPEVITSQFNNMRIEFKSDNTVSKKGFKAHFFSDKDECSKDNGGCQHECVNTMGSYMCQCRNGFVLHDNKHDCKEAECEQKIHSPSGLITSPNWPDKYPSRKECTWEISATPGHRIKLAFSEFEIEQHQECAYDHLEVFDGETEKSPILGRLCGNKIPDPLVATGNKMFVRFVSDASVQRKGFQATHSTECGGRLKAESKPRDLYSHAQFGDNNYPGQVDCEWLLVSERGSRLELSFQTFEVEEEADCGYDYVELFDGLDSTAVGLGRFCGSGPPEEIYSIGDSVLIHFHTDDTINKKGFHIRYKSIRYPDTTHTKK

| SMILES | IC50 (Tolloid-like protein 2) [nM] | IC50 [1] [nM] | IC50 (Tolloid-like protein 1) [nM] | IC50 [2] [nM] | IC50 [3] [nM] |
| --- | --- | --- | --- | --- | --- |
| CCCCC[C@H](CN(O)C=O)C(=O)NCNC(=O)c1ccc(-c2cc(OCC)cc(C(=O)OC)c2)o1 | < 794 | < 126 | < 398 | < 200 | < 3980 |
| CCCCC[C@H](CN(O)C=O)C(=O)NCNC(=O)c1ccc(-c2cccc(OC(F)(F)F)c2)o1 | < 794 | < 126 | < 398 | < 200 | < 3980 |
| CCCCC[C@H](CN(O)C=O)C(=O)NCNC(=O)c1ccc(-c2cccc(C(=O)OC)c2)o1 | < 794 | < 126 | < 398 | < 200 | < 3980 |
| CCCCC[C@@H](C(=O)NCNC(=O)c1ccc(-c2cc(OCC)cc(C(=O)N[C@@H](CCC(=O)O)C(=O)OC(C)(C)C)c2)o1)[C@@H](CC)N(O)C=O | < 794 | < 126 | < 398 | < 200 | < 3980 |
| CCCCC[C@H](CN(O)C=O)C(=O)NCNC(=O)c1ccc(-c2cc(OCC)cc(C(=O)NCCN)c2)o1 | – | < 126 | – | < 200 | < 3980 |
| CCCCC[C@H](CN(O)C=O)C(=O)NCNC(=O)c1ccc(-c2cccc(S(=O)(=O)NC(=O)CC)c2)o1 | < 794 | < 126 | < 398 | < 200 | < 3980 |
| CCCCC[C@@H](C(=O)NCNC(=O)c1ccc(-c2cc(OCC)cc(C(=O)N[C@@H](CCC(=O)OC)C(=O)OC)c2)o1)[C@@H](CC)N(O)C=O | < 794 | < 126 | < 398 | < 200 | < 3980 |
| CCCCC[C@H](CN(O)C=O)C(=O)NCNC(=O)c1ccc(-c2cc(OCC)cc(C(=O)O)c2)o1 | < 794 | < 126 | < 398 | < 200 | < 3980 |
| CCCCC[C@H](CN(O)C=O)C(=O)NCNC(=O)c1ccc(-c2cccc(S(=O)(=O)NC)c2)o1 | < 794 | < 126 | < 398 | < 200 | < 3980 |
| CCCCC[C@H](CN(O)C=O)C(=O)NCNC(=O)c1ccc(-c2cccc(S(N)(=O)=O)c2)o1 | < 794 | < 126 | < 398 | < 200 | < 3980 |
| CCCCC[C@H](CN(O)C=O)C(=O)NCNC(=O)c1ccc(-c2cc(OC)cc(C(=O)O)c2)o1 | < 794 | < 126 | < 398 | < 200 | < 3980 |
| CCCCC[C@H](CN(O)C=O)C(=O)NCNC(=O)c1ccc(-c2cc(OC)cc(C(=O)NCCN)c2)o1 | < 794 | < 126 | < 398 | < 200 | < 3980 |
| CCCCC[C@@H](C(=O)NCNC(=O)c1ccc(-c2cc(OCC)cc(C(=O)NCCN)c2)o1)[C@@H](CC)N(O)C=O | < 794 | < 126 | < 398 | < 200 | < 3980 |
| CCOc1cc(-c2ccc(C(=O)NCNC(=O)[C@H](CCc3ccc4ccccc4c3)[C@@H](CC)N(O)C=O)o2)cc(P(=O)(O)O)c1 | – | < 126 | – | < 200 | < 3980 |
